Structures are written as SMILES. Where only a bound is given, the exact number is not on record here.

One experiment addresses T1, KDM4A (JMJD2A) (Homo sapiens, UniProt O75164).
T1 construct: 1-350; purchased BPS Bioscience, US; host or cells: E. coli
T1 sequence (O75164 1-350): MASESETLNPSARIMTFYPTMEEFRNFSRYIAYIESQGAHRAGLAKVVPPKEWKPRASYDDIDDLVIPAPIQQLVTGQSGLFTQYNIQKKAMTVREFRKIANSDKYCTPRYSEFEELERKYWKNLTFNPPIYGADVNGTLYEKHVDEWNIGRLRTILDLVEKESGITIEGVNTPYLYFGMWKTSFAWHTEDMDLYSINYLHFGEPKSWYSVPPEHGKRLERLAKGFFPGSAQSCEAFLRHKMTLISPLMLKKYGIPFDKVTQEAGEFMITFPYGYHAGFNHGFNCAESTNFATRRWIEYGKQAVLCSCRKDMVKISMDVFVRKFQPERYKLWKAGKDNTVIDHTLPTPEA
Briefly: Histone lysine demethylase AlphaLISA assay, KDM4A. The experiment is classed as biochemical. The settings on record: read-out: KDM4A HDME Inhibition IC50. The method, then: Assays are performed analogously to the protocol described by PerkinElmer (Roy et al. PerkinElmer Technical Note: AlphaLISA #12, April 2011)
Enzymes are dissolved in enzyme buffer and incubated for 10 min before being added to 3% DMSO solutions of compounds in enzyme buffer. Incubated for another 10 minutes, before substrate solution is added and the reaction mixture is incubated at room temperature. 10 μL acceptor beads, suspended in Epigenetic Buffer (Perkin Elmer AL008) from stock, are added and the suspension is incubated in the dark at room temperature, before a suspension of streptavidin donor beads (Perkin Elmer 6760002) in Epigenetic Buffer is added. After incubation at room temperature in the dark the plates are read.
BK9M3: Biotin-ARTKQTAR(KMe3)STGGKAPRKQ-NH2 (Caslo, Denmark) […]
Substrate Solution: Substrate, 25 μM L-Asc, and 10 μM α-KG in Buffer A.

Another experiment deals with MCF7 cells. Description: Cell proliferation assay MCF7. The class given is cell-based. The note with it: MCF7 human breast cancer cells; 120 hours; ATPlite 1 Step. The procedure, abridged:
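After 120 h of compound exposure (duplicates, DMSO at most 0.5%) in DMEM GlutaMAX with 10% FBS, ATPlite 1 Step luminescence measured cellular ATP. Compound was added 24 h after seeding, at a density chosen for ~90% confluence at the end.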

In a further experiment the target is T2, KDM2B (FBXL10) (Homo sapiens, UniProt Q8NHM5).
T2 sequence (Q8NHM5 1-650): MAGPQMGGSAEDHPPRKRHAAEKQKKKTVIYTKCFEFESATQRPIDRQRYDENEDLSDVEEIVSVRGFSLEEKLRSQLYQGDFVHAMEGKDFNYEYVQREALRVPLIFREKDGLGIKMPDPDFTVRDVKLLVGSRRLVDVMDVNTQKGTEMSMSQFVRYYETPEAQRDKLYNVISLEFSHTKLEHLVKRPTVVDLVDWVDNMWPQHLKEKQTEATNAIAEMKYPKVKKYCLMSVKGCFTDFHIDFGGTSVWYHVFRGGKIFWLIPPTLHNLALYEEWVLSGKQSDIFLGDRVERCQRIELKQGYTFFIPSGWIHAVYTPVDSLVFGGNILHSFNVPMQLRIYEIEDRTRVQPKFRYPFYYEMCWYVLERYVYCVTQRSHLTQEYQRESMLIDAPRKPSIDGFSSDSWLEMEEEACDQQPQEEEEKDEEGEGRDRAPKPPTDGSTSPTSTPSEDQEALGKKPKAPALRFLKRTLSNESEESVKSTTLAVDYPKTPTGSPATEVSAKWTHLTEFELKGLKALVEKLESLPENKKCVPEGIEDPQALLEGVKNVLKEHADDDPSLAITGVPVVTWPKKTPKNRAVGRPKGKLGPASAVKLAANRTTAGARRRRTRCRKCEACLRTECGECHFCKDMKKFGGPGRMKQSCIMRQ
Description: Histone lysine demethylase AlphaLISA assay, KDM2B. The class given is biochemical. The note with it: read-out: KDM2B HDME Inhibition IC50. The procedure, abridged: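 AlphaLISA demethylation readout: enzyme preincubated 10 min, then 10 min with compounds in 3% DMSO buffer, before biotinylated methyl-lysine histone peptide substrate with 25 μM L-Asc and 10 μM α-KG, room temperature. Acceptor beads then streptavidin donor beads added, dark incubation, plates read.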
A general note: In Alpha technology, singlet oxygen from a donor bead excites a nearby acceptor bead.

The subject of the next experiment is H3K4me3 mark. Description: Histone lysine demethylase immunofluorescence assay, non-transfected U2OS cells. The experiment is classed as cell-based. The settings on record: Homo sapiens, staining of the H3K4me3 mark, 20 hours incubation with compound. The method, then: U2OS cells were harvested and seeded into multi well plates into media containing compound. The media used was DMEM containing 5% FBS and pen/strep. 20 hours after incubation of cells with compounds, the cells were washed once in PBS, harvested by fixation with formaldehyde 4% aqueous solution, and washed in PBS. Subsequently, the cells were permeabilized in PBS with 0.2% Triton X-100. Blocking was performed in PBS with 0.2% Triton X-100 and 5% FBS. The cells were incubated with αH3K4me3 primary antibody (Cell Signaling, #9751S) in blocking solution over night at 4° C. After incubation with primary antibody, the cells were washed with PBS, incubated with secondary antibody (Alexa fluor 594 goat anti rabbit IgG, Invitrogen, A11012) and Hoechst, (Sigma, 33342) in blocking solution, and washed again with PBS. Finally, PBS was added and high throughput imaging and analysis were performed by an IN Cell Analyzer 1000 (GE Healthcare). The IC50 values were based on an average measure of the staining of the H3K4me3 mark in cells.

Turning to `CCN(CC)CCCCNCc1cc(CN)ccn1` [Compound 5, [2-({[4-(diethylamino)butyl]-amino}methyl)pyridin-4-yl]methanamine], the IC50 on KDM4A (JMJD2A) and on KDM2B (FBXL10) was more than 2500 nM each time. In the experiment on MCF7 cells, this compound came in with a half-maximal effective concentration (EC50) of less than 250 nM.

For the compound `CN(C)CCCCCNCc1cc(CN)ccn1` [Compound 8, [2-({[5-(dimethylamino)pentyl]-amino}methyl)pyridin-4-yl]methanamine], the IC50 on KDM4A (JMJD2A) and at KDM2B (FBXL10) was more than 2500 nM in each case. Besides, in the experiment on MCF7 cells, the 50% effective concentration (EC50) was less than 250 nM.

As for `CN(C)C(=O)CNCc1cc(/C=N/CCCc2ccccc2)ccn1` [Compound 34, N,N-dimethyl-2-[({4-[[(3-phenylpropyl)imino]-methyl]pyridin-2-yl}methyl)amino]-acetamide], the IC50 on KDM4A (JMJD2A) and on KDM2B (FBXL10) was more than 2500 nM in each case. Moreover, the concentration giving a half-maximal response (EC50) in the experiment with MCF7 cells is more than 2500 nM.

In the case of `CN(C)CCC/N=C/c1ccnc(CNCCCN(C)C)c1` [Compound 37, [3-(dimethylamino)propyl]-({4-[{[3-(dimethylamino)propyl]-imino}methyl]pyridin-2-yl}methyl)amine], the IC50 at KDM4A (JMJD2A) and on KDM2B (FBXL10) was more than 2500 nM throughout. The same compound came in with an EC50 in the experiment with MCF7 cells of less than 250 nM.

In the case of `C(=N/C1CC1)/c1ccnc(CNCCCN2CCCC2)c1` [Compound 42, N-{[2-({[3-(pyrrolidin-1-yl)propyl]amino}-methyl)pyridin-4-yl]methylidene}-cyclopropanamine], the IC50 on KDM4A (JMJD2A) and at KDM2B (FBXL10) was more than 2500 nM in each case. This compound also yielded a concentration for a half-maximal effect (EC50) in the experiment with MCF7 cells of less than 250 nM.

As for `CN1CCN(C(=O)CNCc2cc(/C=N/C3CC3)ccn2)CC1` [Compound 54, 2-[({4-[N-cyclopropyl-carboximidoyl]-pyridin-2-yl}methyl)amino]-1-(4-methylpiperazin-1-yl)ethan-1-one], the IC50 on KDM4A (JMJD2A) is 250 to 2500 nM; at KDM2B (FBXL10) it was more than 2500 nM.

For `O=C(CNCc1cc(/C=N/C2CC2)ccn1)N1CCC(Cc2ccccc2)CC1` [Compound 55, 1-(4-benzylpiperidin-1-yl)-2-[({4-[N-cyclopropyl-carboximidoyl]-pyridin-2-yl}methyl)amino]-ethan-1-one], the results for the half-inhibitory concentration (IC50) on KDM4A (JMJD2A) and at KDM2B (FBXL10) were 250 to 2500 nM and more than 2500 nM, respectively.

Take `C#CCN(C)C(=O)CNCc1cc(/C=N/C2CC2)ccn1` [Compound 56, 2-[({4-[N-cyclopropyl-carboximidoyl]-pyridin-2-yl}methyl)amino]-N-methyl-N-(prop-2-yn-1-yl)acetamide]: the concentration for half-maximal inhibition (IC50) at KDM4A (JMJD2A) is 250 to 2500 nM; on KDM2B (FBXL10) it was more than 2500 nM.

As for `CCN(CC)CCCCNCc1cc(/C=N/CCOC)ccn1` [Compound 60, [4-(diethylamino)butyl]-({4-[[(2-methoxyethyl)imino]-methyl]pyridin-2-yl}methyl)amine], the results for the 50% inhibitory concentration (IC50) on KDM4A (JMJD2A) and at KDM2B (FBXL10) were less than 250 nM and more than 2500 nM, respectively. In the experiment with MCF7 cells, this compound displayed an EC50 of less than 250 nM.

For `CCN(CCN(C)C)C(=O)CNCc1cc(/C=N/CCC2CCCCC2)ccn1` [Compound 63, 2-[({4-[[(2-cydohexylethyl)-imino]methyl]pyridin-2-yl}methyl)amino]-N-[2-(dimethylamino)-ethyl]-N-ethylacetamide], the IC50 on KDM4A (JMJD2A) was more than 2500 nM; on KDM2B (FBXL10) it was 250 to 2500 nM. Also, in the experiment on MCF7 cells, the concentration for a half-maximal effect (EC50) was less than 250 nM.

As to `CCN(CC)CCCCNCc1cc(C2NCCN2C)ccn1` (centres unmarked) [Compound 65, [4-(diethylamino)-butyl]({[4-(1-methylimidazolidin-2-yl)pyridin-2-yl]methyl})amine], the 50% inhibitory concentration (IC50) at KDM4A (JMJD2A) and at KDM2B (FBXL10) was more than 2500 nM throughout. For the same compound, in the experiment on MCF7 cells, the half-maximal effective concentration (EC50) is less than 250 nM.

Regarding `CCN(CCN(C)C)C(=O)CNCc1cc(/C=N/CCO)ccn1` [Compound 66], the IC50 was less than 250 nM on KDM4A (JMJD2A) and more than 2500 nM at KDM2B (FBXL10). In the experiment with MCF7 cells, this compound displayed a 50% effective concentration (EC50) of less than 250 nM.

In the case of `CCN(CCN(C)C)C(=O)CNCc1cc(C2OCC(Cc3ccccc3)CN2C(=O)C(F)(F)F)ccn1` (centres unmarked) [Compound 90, 2-[({4-[5-benzyl-3-(trifluoroacetyl)-1,3-oxazinan-2-yl]pyridin-2-yl}methyl)amino]-N-[2-(dimethylamino)-ethyl]-N-ethylacetamide], the values for the concentration for half-maximal inhibition (IC50) in the experiment on H3K4me3 mark and on KDM2B (FBXL10) were less than 250 nM and more than 2500 nM, respectively. This compound also returned an EC50 in the experiment on MCF7 cells of less than 250 nM.

Regarding `CN(C)C/C=C/CNCc1cc(C=O)ccn1` [Compound 98, 2-({[(2E)-4-(dimethylamino)but-2-en-1-yl]amino}-methyl)pyridine-4-carbaldehyde], the IC50 on KDM4A (JMJD2A) and on KDM2B (FBXL10) was more than 2500 nM throughout. The compound further returned an EC50 with MCF7 cells of less than 250 nM.

On to `O=Cc1ccnc(CNCC(=O)N2CCC[C@@H]2CN2CCCC2)c1` [Compound 102, 2-[({2-oxo-2-[(2R)-2-(pyrrolidin-1-ylmethyl)pyrrolidin-1-yl]ethyl}amino)-methyl]pyridine-4-carbaldehyde], for which the IC50 at KDM4A (JMJD2A) and at KDM2B (FBXL10) was more than 2500 nM each time. In the experiment on MCF7 cells, this compound registered an EC50 of 250 to 2500 nM.

Take `CN1CCN(C(=O)CNCc2cc(C=O)ccn2)CC1` [Compound 103, 2-({[2-(4-methylpiperazin-1-yl)-2-oxoethyl]-amino}methyl)-pyridine-4-carbaldehyde]: the IC50 on KDM4A (JMJD2A) and on KDM2B (FBXL10) was more than 2500 nM throughout.

For `CCN(CC)C(=O)CNCc1cc(C=O)ccn1` [Compound 105, N,N-diethyl-2-{[(4-formylpyridin-2-yl)methyl]amino}-acetamide], the concentration for half-maximal inhibition (IC50) at KDM4A (JMJD2A) and at KDM2B (FBXL10) was more than 2500 nM throughout.

For `O=Cc1ccnc(CNCC(=O)N2CCC(Cc3ccccc3)CC2)c1` [Compound 106, 2-({[2-(4-benzylpiperidin-1-yl)-2-oxoethyl]-amino}methyl)-pyridine-4-carbaldehyde], the figures for the IC50 at KDM4A (JMJD2A) and at KDM2B (FBXL10) were 250 to 2500 nM and more than 2500 nM, respectively.

Take `CN(C)CCCCNCc1cc(C=O)ccn1` [Compound 108, 2-({[4-(dimethylamino)-butyl]amino}methyl)-pyridine-4-carbaldehyde]: the IC50 on KDM4A (JMJD2A) and on KDM2B (FBXL10) was more than 2500 nM throughout.

As to `CN(C)CCNCc1cc(C=O)ccn1` [Compound 110, 2-({[2-(dimethylamino)-ethyl]amino}methyl)-pyridine-4-carbaldehyde], the IC50 at KDM4A (JMJD2A) was 250 to 2500 nM; at KDM2B (FBXL10), more than 2500 nM.

In the case of `CCN(CC)CCCCNC(=O)CNCc1cc(C=O)ccn1` [Compound 112, N-[4-(diethylamino)-butyl]-2-{[(4-formylpyridin-2-yl)methyl]amino}-acetamide], the half-inhibitory concentration (IC50) at KDM4A (JMJD2A) was less than 250 nM; at KDM2B (FBXL10), more than 2500 nM.

In the case of `CN(C)CCCCCNCc1cc(C=O)ccn1` [Compound 114, 2-({[5-(dimethylamino)-pentyl]amino}methyl)-pyridine-4-carbaldehyde], the IC50 on KDM4A (JMJD2A) and on KDM2B (FBXL10) was more than 2500 nM throughout.

A word on the IC50: it is the midpoint of a concentration-inhibition curve. Broadly, the EC50 is the midpoint of the concentration-response curve.

Values taken from patent US9650339B2, “Inhibitors of histone demethylases” (Gilead Sciences, Inc., priority 2013, dated 2017).
